# Source: patent publication US20240182445A1 (ONO PHARMACEUTICAL CO., LTD., priority 2019, published 2024)
# Target: T1, human TREK-1 (Homo sapiens, UniProt O95069)
# T1 construct: expressed in transfected cells
# T1 sequence (O95069 1-426): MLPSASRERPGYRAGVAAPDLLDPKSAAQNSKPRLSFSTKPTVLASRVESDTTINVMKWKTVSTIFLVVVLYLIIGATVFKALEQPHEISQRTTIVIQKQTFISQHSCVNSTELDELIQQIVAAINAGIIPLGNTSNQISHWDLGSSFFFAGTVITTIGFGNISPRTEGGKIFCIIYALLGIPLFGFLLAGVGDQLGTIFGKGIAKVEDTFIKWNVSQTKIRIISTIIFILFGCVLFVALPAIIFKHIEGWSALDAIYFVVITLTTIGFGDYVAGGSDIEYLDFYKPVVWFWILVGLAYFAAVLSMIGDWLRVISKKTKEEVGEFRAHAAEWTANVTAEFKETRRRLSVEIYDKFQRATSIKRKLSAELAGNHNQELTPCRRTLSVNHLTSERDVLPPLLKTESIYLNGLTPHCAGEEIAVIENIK
# Assay: TREK-1 Thallium (Tl+) flux assay, Method 1
# Type: cell-based
# Conditions: TREK-1 Thallium (Tl+) flux assay, Method 1
# Method in brief: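 CHO-K1 cells stably expressing human TREK-1, loaded with Thallos dye, received compound or 0.3% DMSO vehicle for 10 min before thallium stimulus buffer. ΔRatio is fluorescence at 25 s after thallium addition over mean pre-addition fluorescence; % inhibition calculated from it.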
row,IC50 [nM],SMILES
1,2770,"Cc1ccc(-n2cc(-c3cnc(NC(=O)c4c(Cl)cnn4C4CCN(C(=O)OC(C)(C)C)CC4)c(C)c3)cn2)cc1 [Compound 409, tert-butyl 4-(4-chloro-5-((3-methyl-5-(1-(p-tolyl)-1H-pyrazol-4-yl)pyridin-2-yl)carbamoyl)-1H-pyrazol-1-yl)piperidine-1-carboxylate]"
2,2840,"Cc1cc(OCc2ccccc2)ccc1NC(=O)c1c(Cl)cnn1C1CCN(C(=O)C(C)C)CC1 [Compound 411, N-(4-(benzyloxy)-2-methylphenyl)-4-chloro-1-(1-isobutyrylpiperidin-4-yl)-1H-pyrazole-5-carboxamide]"
3,1760,"CC(=O)N[C@H]1CC[C@@H](n2ncc(Cl)c2C(=O)Nc2ccc(OCc3ccccc3)cc2C)CC1 [Compound 399, 1-(cis-4-acetamidocyclohexyl)-N-(4-(benzyloxy)-2-methylphenyl)-4-chloro-1H-pyrazole-5-carboxamide]"
4,5520,"Cc1cc(OCc2ccccc2)ccc1NC(=O)c1c(Cl)cnn1CC1CN(C(=O)CC(C)C)CCO1 (stereo not shown) [Compound 429, N-(4-(benzyloxy)-2-methylphenyl)-4-chloro-1-((4-(3-methylbutanoyl)morpholin-2-yl)methyl)-1H-pyrazole-5-carboxamide]"
5,1600,"Cc1cc(-c2ccc(C(F)(F)F)nc2)cnc1NC(=O)c1c(Cl)cnn1C1CCN(C(=O)OC(C)(C)C)CC1 [Compound 396, tert-butyl 4-(4-chloro-5-((5-methyl-6′-(trifluoromethyl)-[3,3′-bipyridin]-6-yl)carbamoyl)-1H-pyrazol-1-yl)piperidine-1-carboxylate]"
6,4850,"Cc1cc(OCc2ccccc2)ccc1NC(=O)c1c(Cl)cnn1CC1CN(C(=O)C2CCC2)CCO1 (stereo not shown) [Compound 424, N-(4-(benzyloxy)-2-methylphenyl)-4-chloro-1-((4-(cyclobutanecarbonyl)morpholin-2-yl)methyl)-1H-pyrazole-5-carboxamide]"

# Same assay, conditions: TREK-1 Thallium (Tl+) flux assay; no *^12 (Method 2) mark on these rows
row,IC50 [nM],SMILES
1,590,"CC(=O)N1CCC(CCn2ncc(Cl)c2C(=O)Nc2ncc(C#Cc3cccs3)cc2F)CC1 [Compound 311, 1-(2-(1-acetylpiperidin-4-yl)ethyl)-4-chloro-N-(3-fluoro-5-(thiophen-2-ylethynyl)pyridin-2-yl)-1H-pyrazole-5-carboxamide]"
2,540,"CC(C)(C)OC(=O)N1CCC(n2ncc(Cl)c2C(=O)Nc2c(F)cc(C#Cc3ccccc3)cc2F)C1 (stereo not shown) [Compound 297, tert-butyl 3-(4-chloro-5-((2,6-difluoro-4-(phenyethynyl)phenyl)carbamoyl)-1H-pyrazol-1-yl)pyrroldine-1-carboxylate]"
3,380,"CC(=O)N1CCC(Cn2ncc(Cl)c2C(=O)Nc2ncc(C#Cc3ccc(F)cc3)cc2C)C(C)C1 (stereo not shown) [Compound 244, 1-((1-acetyl-3-methylpiperidin-4-yl)methyl)-4-chloro-N-(5-((4-fluorophenyl)ethynyl)-3-methylpyridin-2-yl)-1H-pyrazole-5-carboxamide]"
4,1100,"CCN1CC(n2ncc(Cl)c2C(=O)Nc2ncc(C#Cc3ccccc3)cc2F)C1 [Compound 373, 4-chloro-1-(1-ethylazetidin-3-yl)-N-(3-fluoro-5-(phenylethynyl)pyridin-2-yl)-1H-pyrazole-5-carboxamide hydrate]"
5,910,"Cc1cc(C#Cc2ccccc2)cnc1NC(=O)c1c(Cl)nn(C)c1-c1ccc2c(cnn2C)c1 [Compound 364, 3-chloro-1-methyl-5-(1-methyl-1H-indazol-5-yl)-N-(3-methyl-5-(phenylethynyl)pyridin-2-yl)-1H-pyrazole-4-carboxamide]"
6,340,"CC(C)(C)OC(=O)N[C@@H]1CC[C@@H](n2ncc(Cl)c2C(=O)Nc2ncc(C#Cc3ccccc3)cc2F)C1 [Compound 221, tert-butyl ((1R,3R)-3-(4-chloro-5-((3-fluoro-5-(phenylethynyl)pyridin-2-yl)carbamoyl)-1H-pyrazol-1-yl)cyclopentyl)carbamate]"
7,450,"Cc1cc(C#Cc2ccc(F)cc2)cnc1NC(=O)c1c(Cl)cnn1CC1(C#N)CCN(C(=O)OC(C)(C)C)CC1 [Compound 269, tert-butyl 4-((4-chloro-5-((5-((4-fluorophenyl)ethynyl)-3-methylpyridin-2-yl)carbamoyl)-1H-pyrazol-1-yl)methyl)-4-cyanopiperidine-1-carboxylate]"
8,850,"Cc1cc(C#Cc2ccccc2)cnc1NC(=O)c1c(Cl)cnn1[C@@H]1CCN(C(=O)OC(C)(C)C)C1 [Compound 353, tert-butyl (R)-3-(4-chloro-5-((3-methyl-5-(phenylethynyl)pyridin-2-yl)carbamoyl)-1H-pyrazol-1-yl)pyrrolidine-1-carboxylate]"
9,630,"Cc1cc(C#Cc2ccccc2)cnc1NC(=O)c1c(Cl)cnn1CCN1CCN(C(=O)OC(C)(C)C)CC1 [Compound 323, tert-butyl 4-(2-(4-chloro-5-((3-methyl-5-(phenylethynyl)pyridin-2-yl)carbamoyl)-1H-pyrazol-1-yl)ethyl)piperazine-1-carboxylate]"
10,490,"Cc1cc(C#Cc2ccccc2)cnc1NC(=O)c1c(Cl)cnn1CC1CC1 [Compound 278, 4-chloro-1-(cyclopropylmethyl)-N-(3-methyl-5-(phenylethynyl)pyridin-2-yl)-1H-pyrazole-5-carboxamide]"
11,740,"Cc1cc(C#Cc2ccccc2)cnc1NC(=O)c1c(Cl)cnn1CC1CC(C)OC(C)C1 (stereo not shown) [Compound 340, 4-chloro-1-((2,6-dimethyltetrahydro-2H-pyran-4-yl)methyl)-N-(3-methyl-5-(phenylethynyl)pyridin-2-yl)-1H-pyrazole-5-carboxamide]"
12,820,"CC(=O)N[C@H]1C[C@H](n2ncc(Cl)c2C(=O)Nc2ncc(C#Cc3ccc(F)cc3)cc2C)C1 [Compound 351, 1-(trans-3-acetamidocyclobutyl)-4-chloro-N-(5-((4-fluorophenyl)ethynyl)-3-methylpyridin-2-yl)-1H-pyrazole-5-carboxamide]"

# Same assay, conditions: TREK-1 Thallium (Tl+) flux assay; values without footnote *12 are Method 1
row,IC50 [nM],SMILES
1,270,"CC(=O)N1CCC(C#N)(Cn2ncc(Cl)c2C(=O)Nc2ncc(C#Cc3ccc(F)cc3)cc2C)CC1 [Compound 179, 1-((1-acetyl-4-cyanopiperidin-4-yl)methyl)-4-chloro-N-(5-((4-fluorophenyl)ethynyl)-3-methylpyridin-2-yl)-1H-pyrazole-5-carboxamide]"
2,220,"Cc1cc(C#Cc2ccccc2)cnc1NC(=O)c1c(Cl)cnn1C1CCN(C(=O)C(C)C)C1 (stereo not shown) [Compound 136, 4-chloro-1-(1-isobutyrylpyrrolidin-3-yl)-N-(3-methyl-5-(phenylethynyl)pyridin-2-yl)-1H-pyrazole-5-carboxamide]"
3,130,"CC(=O)N1CCC(Cn2ncc(Cl)c2C(=O)Nc2ncc(C#Cc3ccccc3)cc2F)CC1 [Compound 42, 1-((1-acetylpiperidin-4-yl)methyl)-4-chloro-N-(3-fluoro-5-(phenylethynyl)pyridin-2-yl)-1H-pyrazole-5-carboxamide]"
4,180,"CC(=O)N1CCC(Cn2ncc(Cl)c2C(=O)Nc2ncc(C#Cc3ccccc3)cc2C)C(F)(F)C1 (stereo not shown) [Compound 98, 1-((1-acetyl-3,3-difluoropiperidin-4-yl)methyl)-4-chloro-N-(3-methyl-5-(phenylethynyl)pyridin-2-yl)-1H-pyrazole-5-carboxamide]"
5,220,"O=C(Nc1ncc(C#Cc2cccs2)cc1F)c1c(Cl)cnn1C1CCN(C(=O)C2CC2)CC1 [Compound 139, 4-chloro-1-(1-(cyclopropanecarbonyl)piperidin-4-yl)-N-(3-fluoro-5-(thiophen-2-ylethynyl)pyridin-2-yl)-1H-pyrazole-5-carboxamide]"
6,130,"CC(=O)N1CC(n2ncc(Cl)c2C(=O)Nc2ncc(C#Cc3ccccc3)cc2F)C1 [Compound 40, 1-(1-acetylazetidin-3-yl)-4-chloro-N-(3-fluoro-5-(phenylethynyl)pyridin-2-yl)-1H-pyrazole-5-carboxamide]"
7,280,"Cc1cc(C#Cc2ccc(F)cc2)cnc1NC(=O)c1c(Cl)cnn1C1CCN(C(=O)C(C)(C)C)CC1 [Compound 181, 4-chloro-N-(5-((4-fluorophenyl)ethynyl)-3-methylpyridin-2-yl)-1-(1-pivaloylpiperidin-4-yl)-1H-pyrazole-5-carboxamide]"
8,220,"CC(=O)N1CC[C@H](n2ncc(Cl)c2C(=O)Nc2ncc(C#Cc3ccccc3)cc2F)C1 [Compound 129, (S)-1-(1-acetylpyrrolidin-3-yl)-4-chloro-N-(3-fluoro-5-(phenylethynyl)pyridin-2-yl)-1H-pyrazole-5-carboxamide]"

# Same assay, conditions: read-out: Tl^+ Assay % inhibition at 30 uM (Minus value indicates activation of TREK-1); at 30 uM; CHO-K1 cells stably expressing human TREK-1; minus = activation
row,inhibition at 30 µM [%],SMILES
1,-79,"Cc1cc(C#Cc2ccc(F)cc2)cnc1NC(=O)c1nn(CCC2CCN(C(=O)C3CC3)CC2)cc1Cl [Compound 451, 4-chloro-1-(2-(1-(cyclopropanecarbonyl)piperidin-4-yl)ethyl)-N-(5-((4-fluorophenyl)ethynyl)-3-methylpyridin-2-yl)-1H-pyrazole-3-carboxamide]"
2,-106,"O=C(Nc1ncc(C#Cc2cccs2)cc1F)c1nn(CCC2CCN(C(=O)C3COCCO3)CC2)cc1Cl (stereo not shown) [Compound 448, 1-(2-(1-(1,4-dioxane-2-carbonyl)piperidin-4-yl)ethyl)-4-chloro-N-(3-fluoro-5-(thiophen-2-ylethynyl)pyridin-2-yl)-1H-pyrazole-3-carboxamide]"
